Data: ChEMBL document CHEMBL1201862, “PubChem BioAssay data set” (2004)
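Dose response: 5 concentrations. Exposure: 48 h. Format: 96-well plates. Endpoint: linear interpolation; highest concentration if not reached. GI50 is the concentration that inhibits growth by half.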 Active and inactive are the calls of the source. No stated cut-off is given here; in the data, active = GI50 up to about 1.1 µM and inactive = higher.

Assays:
Test in all cases: inhibition of tumour cell growth, NCI panel, 48 h
[1] = tested on: DMS-114
[2] = tested on: OVCAR-4
[3] = tested on: OVCAR-8
[4] = tested on: RPMI-8226
[5] = tested on: OVCAR-3
[6] = tested on: SNB-78
[7] = tested on: OVCAR-5
[8] = tested on: RXF 393
[9] = tested on: U-251
[10] = tested on: NCI-H522
[11] = tested on: SNB-19
[12] = tested on: SK-MEL-28
[13] = tested on: DMS-273
[14] = tested on: HT-29
[15] = tested on: HCT-15
[16] = tested on: A498
[17] = tested on: CAKI-1
[18] = tested on: A549
[19] = tested on: EKVX
[20] = tested on: HL-60
[21] = tested on: HCC 2998
[22] = tested on: ACHN
[23] = tested on: SN12C
[24] = tested on: M14
[25] = tested on: CCRF-CEM
[26] = tested on: K562
[27] = tested on: NCI-H23
[28] = tested on: SK-OV-3
[29] = tested on: SW-620
[30] = tested on: M19-MEL
[31] = tested on: DLD-1
[32] = tested on: SF-539
[33] = tested on: LXFL 529
[34] = tested on: UACC-257
[35] = tested on: MOLT-4
[36] = tested on: SF-295
[37] = tested on: SF-268
[38] = tested on: SR
[39] = tested on: KM12
[40] = tested on: HCT-116
[41] = tested on: SK-MEL-2
[42] = tested on: NCI-H226
[43] = tested on: Malme-3M
[44] = tested on: TK-10
[45] = tested on: HOP-62
[46] = tested on: SNB-75
[47] = tested on: UO-31
[48] = tested on: NCI-H460
[49] = tested on: 786-0
[50] = tested on: SK-MEL-5
[51] = tested on: HOP-92
[52] = tested on: UACC-62
[53] = tested on: IGROV-1
[54] = tested on: KM-20L2
[55] = tested on: COLO 205
[56] = tested on: LOX IMVI

## CC(C)=CCCC1(C)C=Cc2c(ccc3c2[nH]c2cc(O)c(C)cc23)O1 (stereo not drawn)
[1]
  GI50: 7.14 µM (inactive)
[2]
  GI50: 7.94 µM (inactive)
[3]
  GI50: 3.81 µM (inactive)
[4]
  GI50: 6.59 µM (inactive)
[5]
  GI50: 4.75 µM (inactive)
[6]
  GI50: 13 µM (inactive)
[7]
  GI50: 19.4 µM (inactive)

## CCCC12Cc3c(OC)ccc(OC)c3CC(Cc3c(OC)ccc(OC)c31)C2=O (stereo not drawn)
[8]
  GI50: > 100 µM (inactive)
[9]
  GI50: > 100 µM (inactive)
[10]
  GI50: 81.5 µM (inactive)
[11]
  GI50: > 100 µM (inactive)
[12]
  GI50: > 100 µM (inactive)
[1]
  GI50: 34.8 µM (inactive)
[13]
  GI50: > 100 µM (inactive)
[14]
  GI50: > 100 µM (inactive)
[2]
  GI50: 18.8 µM (inactive)
[3]
  GI50: > 100 µM (inactive)
[15]
  GI50: > 100 µM
[16]
  GI50: > 100 µM (inactive)
[17]
  GI50: 9.64 µM (inactive)
[18]
  GI50: > 100 µM (inactive)
[19]
  GI50: > 100 µM (inactive)
[20]
  GI50: 7.21 µM (inactive)
[21]
  GI50: > 100 µM (inactive)
[22]
  GI50: > 100 µM (inactive)
[23]
  GI50: > 100 µM (inactive)
[24]
  GI50: > 100 µM (inactive)
[25]
  GI50: > 100 µM (inactive)
[26]
  GI50: > 100 µM (inactive)
[27]
  GI50: > 100 µM (inactive)
[28]
  GI50: > 100 µM (inactive)
[29]
  GI50: > 100 µM (inactive)
[30]
  GI50: > 100 µM (inactive)
[31]
  GI50: > 100 µM (inactive)
[32]
  GI50: > 100 µM (inactive)
[33]
  GI50: 10.2 µM (inactive)
[34]
  GI50: > 100 µM (inactive)
[5]
  GI50: > 100 µM (inactive)
[6]
  GI50: > 100 µM (inactive)
[35]
  GI50: 7.36 µM (inactive)
[36]
  GI50: > 100 µM (inactive)
[37]
  GI50: > 100 µM (inactive)
[38]
  GI50: 7.29 µM (inactive)
[39]
  GI50: > 100 µM (inactive)
[7]
  GI50: > 100 µM (inactive)
[40]
  GI50: 10.8 µM (inactive)
[41]
  GI50: > 100 µM (inactive)
[42]
  GI50: 24.8 µM (inactive)
[43]
  GI50: 69.3 µM (inactive)
[44]
  GI50: > 100 µM (inactive)
[45]
  GI50: > 100 µM (inactive)
[46]
  GI50: > 100 µM (inactive)
[47]
  GI50: > 100 µM (inactive)
[48]
  GI50: > 100 µM (inactive)
[49]
  GI50: > 100 µM (inactive)
[50]
  GI50: 73.5 µM (inactive)

## COc1cc2c(cc1OC)-c1c(cnn1C1OC(COC(C)=O)C(OC(C)=O)C(OC(C)=O)C1OC(C)=O)CC2 (stereo not drawn)
[9]
  GI50: 34.1 µM (inactive)
[10]
  GI50: 18.7 µM (inactive)
[11]
  GI50: > 100 µM (inactive)
[12]
  GI50: > 100 µM (inactive)
[51]
  GI50: 48.1 µM (inactive)
[1]
  GI50: 72.6 µM (inactive)
[13]
  GI50: > 100 µM (inactive)
[14]
  GI50: > 100 µM (inactive)
[2]
  GI50: > 100 µM (inactive)
[3]
  GI50: > 100 µM (inactive)
[52]
  GI50: > 100 µM (inactive)
[15]
  GI50: > 100 µM
[16]
  GI50: > 100 µM (inactive)
[17]
  GI50: > 100 µM (inactive)
[18]
  GI50: > 100 µM (inactive)
[19]
  GI50: > 100 µM (inactive)
[20]
  GI50: 11 µM (inactive)
[53]
  GI50: > 100 µM (inactive)
[22]
  GI50: > 100 µM (inactive)
[4]
  GI50: > 42.8 µM (inactive)
[24]
  GI50: > 100 µM (inactive)
[25]
  GI50: 28.6 µM (inactive)
[26]
  GI50: 33 µM (inactive)
[27]
  GI50: > 100 µM (inactive)
[54]
  GI50: > 100 µM (inactive)
[28]
  GI50: > 100 µM (inactive)
[55]
  GI50: > 100 µM (inactive)
[29]
  GI50: > 60.7 µM (inactive)
[56]
  GI50: > 100 µM (inactive)
[30]
  GI50: > 89.1 µM (inactive)
[31]
  GI50: > 100 µM (inactive)
[32]
  GI50: > 100 µM (inactive)
[33]
  GI50: > 85.7 µM (inactive)
[34]
  GI50: > 100 µM (inactive)
[5]
  GI50: > 88.1 µM (inactive)
[6]
  GI50: > 100 µM (inactive)
[35]
  GI50: > 81.5 µM (inactive)
[36]
  GI50: > 100 µM (inactive)
[37]
  GI50: > 100 µM (inactive)
[38]
  GI50: 10.5 µM (inactive)
[39]
  GI50: > 100 µM (inactive)
[7]
  GI50: > 100 µM (inactive)
[40]
  GI50: > 100 µM (inactive)
[41]
  GI50: > 100 µM (inactive)
[42]
  GI50: > 100 µM (inactive)
[44]
  GI50: > 100 µM (inactive)
[45]
  GI50: > 100 µM (inactive)
[46]
  GI50: 48.9 µM (inactive)
[47]
  GI50: 55.7 µM (inactive)
[48]
  GI50: > 100 µM (inactive)
[49]
  GI50: > 100 µM (inactive)
[50]
  GI50: > 83.4 µM (inactive)

## CCO/C=C\C12CCCC1NC(c1ccccc1)(c1ccccc1)O2 (stereo not drawn)
[8]
  GI50: 31 µM (inactive)
[9]
  GI50: 33.3 µM (inactive)
[10]
  GI50: 33.7 µM (inactive)
[11]
  GI50: 45.7 µM (inactive)
[12]
  GI50: 40.5 µM (inactive)
[51]
  GI50: 24 µM (inactive)
[1]
  GI50: 30.6 µM (inactive)
[13]
  GI50: 32.7 µM (inactive)
[14]
  GI50: 23.2 µM (inactive)
[2]
  GI50: 35.8 µM (inactive)
[3]
  GI50: 39.2 µM (inactive)
[52]
  GI50: 21.7 µM (inactive)
[16]
  GI50: 53.5 µM (inactive)
[17]
  GI50: 23.3 µM (inactive)
[18]
  GI50: 32.8 µM (inactive)
[19]
  GI50: 43.9 µM (inactive)
[20]
  GI50: 18.2 µM (inactive)
[53]
  GI50: 28 µM (inactive)
[22]
  GI50: 30.3 µM (inactive)
[23]
  GI50: 25.7 µM (inactive)
[24]
  GI50: 22.5 µM (inactive)
[25]
  GI50: 21.5 µM (inactive)
[26]
  GI50: 20.1 µM (inactive)
[27]
  GI50: 28.4 µM (inactive)
[54]
  GI50: 23.1 µM (inactive)
[28]
  GI50: 40.4 µM (inactive)
[29]
  GI50: 38.4 µM (inactive)
[30]
  GI50: 24.7 µM (inactive)
[31]
  GI50: 32.3 µM (inactive)
[32]
  GI50: 25.3 µM (inactive)
[33]
  GI50: 28.1 µM (inactive)
[34]
  GI50: 27.5 µM (inactive)
[5]
  GI50: 27.9 µM (inactive)
[6]
  GI50: 54.8 µM (inactive)
[35]
  GI50: 19.2 µM (inactive)
[36]
  GI50: 32.7 µM (inactive)
[37]
  GI50: 35.8 µM (inactive)
[39]
  GI50: 35.7 µM (inactive)
[7]
  GI50: 16.5 µM (inactive)
[40]
  GI50: 30.7 µM (inactive)
[41]
  GI50: 23.2 µM (inactive)
[42]
  GI50: 43.8 µM (inactive)
[43]
  GI50: 25.9 µM (inactive)
[44]
  GI50: 31.5 µM (inactive)
[45]
  GI50: 41.5 µM (inactive)
[46]
  GI50: 19.5 µM (inactive)
[47]
  GI50: 28.8 µM (inactive)
[48]
  GI50: 48.8 µM (inactive)
[49]
  GI50: 32.7 µM (inactive)
[50]
  GI50: 17.1 µM (inactive)
